Assay results taken from patent US9533937B2, “Use of metal scavengers for removal of ruthenium residues” (Apeiron Synthesis S.A., priority 2013, dated 2017).

Assay: Solubility in solvents
Assay type: physicochemical

In the case of `[C-]#[N+]CC(=O)[O-].[K+]` [CNCH2CO2K], the solubility in solvents is reported as “well soluble only in very polar solvents such as water and alcohols”.
